In DBAASP one finds MIC data, which are given here for seven compounds.

Test in all cases: ≥ marks a high value that may be exact or a test limit, other limits are often not marked, values filed in µg/mL are converted to µM
Experiment [1] has as its system Pseudomonas aeruginosa ATCC 27853.
For experiment [2], the system named is Acinetobacter baumannii ATCC 19606.
Experiment [3] concerns Staphylococcus aureus ATCC 25923.
Experiment [4] has as its system Escherichia coli ATCC 25922.
Experiment [5] has as its system Pseudomonas aeruginosa PAO1.
In experiment [6] the test system is Klebsiella pneumoniae ATCC 13883.
The subject of experiment [7] is Staphylococcus aureus USA 300.
The next experiment concerns Acinetobacter baumannii.
The test system of experiment [8] is Staphylococcus aureus ATCC 33591.

Structures are written as SMILES. Values after ≈ are worked out from the molar mass of the structure shown.

In the case of `CC(C)C[C@H](NC(=O)[C@H](CC(C)C)NC(=O)[C@H](CCCCN)NC(=O)[C@H](CCCCN)NC(=O)[C@H](CC(C)C)NC(=O)[C@H](CS)NC(=O)[C@H](CCCCN)NC(=O)[C@H](CC(C)C)NC(=O)[C@@H](N)Cc1ccccc1)C(N)=O` [FLKCLKKLL], the MIC in experiment [1] was found to be 14.5 µM (≈ 16 µg/mL); in experiment [2], 14.5 µM (≈ 16 µg/mL); in experiment [3], 57.9 µM (≈ 63.9 µg/mL); in experiment [4], 14.5 µM (≈ 16 µg/mL).

With `CC(C)C[C@H](NC(=O)[C@H](C)NC(=O)[C@H](CCCCN)NC(=O)CNC(=O)[C@H](CC(C)C)NC(=O)[C@H](C)NC(=O)[C@H](CCCCN)NC(=O)[C@H](CC(C)C)NC(=O)[C@H](C)NC(=O)[C@H](CO)NC(=O)[C@H](CC(C)C)NC(=O)[C@H](C)NC(=O)CN)C(N)=O` [GALSALKALGKAL], the MIC in [5] was more than 25 µM; in experiment [6] it was 25 µM (≈ 30.3 µg/mL); in experiment [4], more than 25 µM; in [7], 25 µM (≈ 30.3 µg/mL).

In the case of `CC(C)C[C@H](NC(=O)[C@H](CC(C)C)NC(=O)[C@H](CCCCN)NC(=O)CNC(=O)[C@H](CC(C)C)NC(=O)[C@H](C)NC(=O)[C@H](CCCCN)NC(=O)[C@H](CC(C)C)NC(=O)[C@H](C)NC(=O)[C@H](CO)NC(=O)[C@H](CC(C)C)NC(=O)[C@H](C)NC(=O)CN)C(N)=O` [GALSALKALGKLL], the MIC in experiment [5] is more than 25 µM; in experiment [6] it was 25 µM (≈ 31.3 µg/mL); in experiment [4], 25 µM (≈ 31.3 µg/mL); in [7] it was 25 µM (≈ 31.3 µg/mL).

For `CC(C)C[C@H](NC(=O)[C@H](CC(C)C)NC(=O)[C@H](CCCCN)NC(=O)CNC(=O)[C@H](CC(C)C)NC(=O)[C@H](CC(C)C)NC(=O)[C@H](CO)NC(=O)[C@H](C)NC(=O)[C@H](CC(C)C)NC(=O)[C@H](CO)NC(=O)[C@H](CC(C)C)NC(=O)[C@H](CC(C)C)NC(=O)CN)C(N)=O` [GLLSLASLLGKLL], the MIC in experiment [5] was 8.8 µM (≈ 11.4 µg/mL); in experiment [6], 3.1 µM (≈ 4.02 µg/mL); in experiment [4], 2.16 µM (≈ 2.8 µg/mL); in [7], 0.78 µM (≈ 1.01 µg/mL).

Take `CC(C)C[C@H](NC(=O)[C@H](CC(C)C)NC(=O)[C@H](CCCCN)NC(=O)CNC(=O)[C@H](CC(C)C)NC(=O)[C@H](CO)NC(=O)[C@H](CC(C)C)NC(=O)[C@H](CO)NC(=O)[C@H](CC(C)C)NC(=O)[C@H](CC(C)C)NC(=O)CN)C(N)=O` [GLLSLSLGKLL]: the MIC was more than 25 µM in [5], 25 µM (≈ 27.8 µg/mL) in experiment [6], more than 25 µM in experiment [4] and 25 µM (≈ 27.8 µg/mL) in experiment [7].

For the compound `CC[C@H](C)[C@H](NC(=O)[C@H](CCCN=C(N)N)NC(=O)[C@@H](NC(=O)[C@@H](NC(=O)[C@@H]1CCCN1C(=O)[C@@H](NC(=O)[C@@H](NC(=O)[C@@H](NC(=O)[C@@H]1CCCN1C(=O)CNC(=O)[C@H](Cc1ccc(O)cc1)NC(=O)[C@H](CCCCN)NC(=O)[C@H](CCCCN)NC(=O)[C@H](Cc1c[nH]c2ccccc12)NC(=O)[C@H](C)NC(=O)[C@H](CCCN=C(N)N)NC(=O)[C@H](CC(C)C)NC(=O)[C@@H](NC(=O)[C@H](CCCCN)NC(=O)[C@H](CCCN=C(N)N)NC(=O)CNC(=O)[C@H](CC(C)C)NC(=O)[C@H](CCCCN)NC(=O)[C@H](CCCN=C(N)N)NC(=O)[C@H](CC(C)C)NC(=O)CNC(=O)[C@@H](N)CCCCN)[C@@H](C)CC)[C@@H](C)CC)[C@@H](C)CC)C(C)C)[C@@H](C)CC)[C@@H](C)CC)C(=O)O` [KGLRKLGRKILRAWKKYGPIIVPIIRI], the results for the MIC (in [2]; in the experiment with Acinetobacter baumannii) were 2.22 µM (≈ 7.07 µg/mL) and 3.14 µM (≈ 10 µg/mL), respectively.

As to `C[C@H](NC(=O)[C@H](CCCCN)NC(=O)[C@H](Cc1ccc(O)cc1)NC(=O)[C@H](CCCCN)NC(=O)[C@H](CCCCN)NC(=O)[C@H](CCCCN)NC(=O)[C@H](Cc1ccc(O)cc1)NC(=O)[C@H](CCCN=C(N)N)NC(=O)[C@H](CCCCN)NC(=O)[C@@H](N)CCCCN)C(=O)N[C@@H](Cc1ccc(O)cc1)C(=O)N[C@@H](CCCCN)C(=O)N1CCC[C@H]1C(=O)N[C@@H](Cc1ccc(O)cc1)C(=O)N[C@@H](CCCCN)C(=O)N[C@@H](CCCCN)C(=O)N[C@@H](CCCCN)C(=O)N[C@@H](CCCCN)C(=O)N[C@@H](CCCCN)C(=O)N[C@@H](Cc1ccccc1)C(N)=O` [KKRYKKKYKAYKPYKKKKKF], the MIC in experiment [1] is 100 µM (≈ 268 µg/mL); in experiment [3] it was 35.4 µM (≈ 94.7 µg/mL); in [8], not below 50 µM; in experiment [4], 12.5 µM (≈ 33.5 µg/mL).

Broadly, the MIC is the lowest concentration that inhibits growth of the organism. A low value points to a more susceptible organism.
